Experimental data as given in the NIST ThermoML archive (doi:10.1016/j.jct.2015.04.015).
Numbers after ± are expanded uncertainties.

Conditions: Gas, Rotating-body viscometer developed for low-density gases

SMILES: O=C=O [carbon dioxide]
- viscosity (253.15 K, 100.2 kPa): 0.01271 ± 5.2e-05 mPa·s
- viscosity (253.15 K, 153 kPa): 0.01271 ± 5.2e-05 mPa·s
- viscosity (253.15 K, 200.5 kPa): 0.01271 ± 5.2e-05 mPa·s
- viscosity (253.15 K, 300.5 kPa): 0.01271 ± 5.2e-05 mPa·s
- viscosity (253.15 K, 401.4 kPa): 0.01272 ± 5.2e-05 mPa·s
- viscosity (273.17 K, 100.4 kPa): 0.01371 ± 5.2e-05 mPa·s
- viscosity (273.17 K, 151.8 kPa): 0.0137 ± 5.2e-05 mPa·s
- viscosity (273.17 K, 203.4 kPa): 0.0137 ± 5.2e-05 mPa·s
- viscosity (273.17 K, 301.7 kPa): 0.01371 ± 5.2e-05 mPa·s
- viscosity (273.17 K, 399.4 kPa): 0.01371 ± 5.2e-05 mPa·s
- viscosity (273.17 K, 502.8 kPa): 0.01372 ± 5.2e-05 mPa·s
- viscosity (298.15 K, 100.8 kPa): 0.0149 ± 3e-05 mPa·s
- viscosity (298.15 K, 150.4 kPa): 0.01491 ± 3e-05 mPa·s
- viscosity (298.15 K, 201.6 kPa): 0.0149 ± 3e-05 mPa·s
- viscosity (298.15 K, 204.6 kPa): 0.0149 ± 3e-05 mPa·s
- viscosity (298.15 K, 303.2 kPa): 0.01491 ± 3e-05 mPa·s
- viscosity (298.15 K, 303.3 kPa): 0.01491 ± 3e-05 mPa·s
- viscosity (298.15 K, 400 kPa): 0.01493 ± 3e-05 mPa·s
- viscosity (298.15 K, 402.9 kPa): 0.01492 ± 3e-05 mPa·s
- viscosity (298.15 K, 498.5 kPa): 0.01493 ± 3e-05 mPa·s
- viscosity (298.15 K, 499.7 kPa): 0.01494 ± 3e-05 mPa·s
- viscosity (298.15 K, 502.8 kPa): 0.01494 ± 3e-05 mPa·s
- viscosity (298.15 K, 604.5 kPa): 0.01494 ± 3e-05 mPa·s
- viscosity (323.16 K, 100.8 kPa): 0.01608 ± 5.1e-05 mPa·s
- viscosity (323.16 K, 151.6 kPa): 0.01608 ± 5.1e-05 mPa·s
- viscosity (323.16 K, 200.9 kPa): 0.01609 ± 5.1e-05 mPa·s
- viscosity (323.16 K, 304.9 kPa): 0.0161 ± 5.1e-05 mPa·s
- viscosity (323.16 K, 400.7 kPa): 0.0161 ± 5.1e-05 mPa·s
- viscosity (323.16 K, 500.4 kPa): 0.01612 ± 5.1e-05 mPa·s
- viscosity (323.16 K, 598.7 kPa): 0.01613 ± 5.1e-05 mPa·s
- viscosity (373.16 K, 100.4 kPa): 0.0184 ± 5e-05 mPa·s
- viscosity (373.16 K, 151.4 kPa): 0.0184 ± 5e-05 mPa·s
- viscosity (373.16 K, 201.1 kPa): 0.0184 ± 5e-05 mPa·s
- viscosity (373.16 K, 296.8 kPa): 0.01842 ± 5e-05 mPa·s
- viscosity (373.16 K, 399.9 kPa): 0.01843 ± 5e-05 mPa·s
- viscosity (373.16 K, 604.9 kPa): 0.01846 ± 5e-05 mPa·s
- viscosity (373.16 K, 802.6 kPa): 0.01849 ± 5e-05 mPa·s
- viscosity (423.14 K, 100.2 kPa): 0.02065 ± 5e-05 mPa·s
- viscosity (423.14 K, 153.3 kPa): 0.02066 ± 5e-05 mPa·s
- viscosity (423.14 K, 204.1 kPa): 0.02065 ± 5e-05 mPa·s
- viscosity (423.14 K, 302 kPa): 0.02066 ± 5e-05 mPa·s
- viscosity (423.14 K, 397.6 kPa): 0.02068 ± 5e-05 mPa·s
- viscosity (423.14 K, 600.4 kPa): 0.0207 ± 5e-05 mPa·s
- viscosity (423.14 K, 800.8 kPa): 0.02073 ± 5e-05 mPa·s
- viscosity (423.14 K, 998.9 kPa): 0.02077 ± 5e-05 mPa·s
- viscosity (473.15 K, 153 kPa): 0.02275 ± 5e-05 mPa·s
- viscosity (473.15 K, 202.5 kPa): 0.02277 ± 5e-05 mPa·s
- viscosity (473.15 K, 403.5 kPa): 0.02278 ± 5e-05 mPa·s
- viscosity (473.15 K, 601.1 kPa): 0.02282 ± 5e-05 mPa·s
- viscosity (473.15 K, 803 kPa): 0.02284 ± 5e-05 mPa·s
- viscosity (473.15 K, 997.8 kPa): 0.02288 ± 5e-05 mPa·s
- viscosity (473.15 K, 1200.9 kPa): 0.0229 ± 5e-05 mPa·s
- viscosity (473.16 K, 100.1 kPa): 0.02275 ± 5e-05 mPa·s
